Data from paper PMC5681660, “Reduced hepatitis B and D viral entry using clinically applied drugs as novel inhibitors of the bile acid transporter NTCP” (Scientific Reports, 2017).
Where a name gives a salt, the structure may show the parent alone.

Biological target: T1, human NTCP (Homo sapiens, UniProt Q14973)
T1 sequence (Q14973 1-349): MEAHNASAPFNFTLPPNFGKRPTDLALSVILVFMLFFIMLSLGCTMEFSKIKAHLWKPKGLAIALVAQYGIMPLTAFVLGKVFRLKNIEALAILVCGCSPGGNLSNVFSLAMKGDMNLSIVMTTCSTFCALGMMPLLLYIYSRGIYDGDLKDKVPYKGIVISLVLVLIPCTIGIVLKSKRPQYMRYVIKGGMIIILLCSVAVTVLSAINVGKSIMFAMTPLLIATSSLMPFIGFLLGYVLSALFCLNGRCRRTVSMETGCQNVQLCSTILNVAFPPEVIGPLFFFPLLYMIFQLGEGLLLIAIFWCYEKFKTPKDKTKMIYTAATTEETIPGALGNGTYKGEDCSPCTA
Assay: Screening taurocholate uptake assay (96-well, [14C]taurocholate, 10 µM drug)
Conditions: for B-score functional assay: screening taurocholate uptake, 10 µM drug; for position among the hits of the screen (combined ranking of both screening assays): 1280 drugs at 10 µM, TC uptake and Myrcludex B binding screens combined

[1] = ranking over the functional and the binding screening assay
[2] = combined ranking of functional and binding screening assays

Structure (SMILES) | Ranking score [1] | B-score functional assay | Ranking score [2] | also measured
CCCCN1CCCCC1C(=O)Nc1c(C)cccc1C (stereo not drawn) [Bupivacaine hydrochloride] | 231.991 | -1.136 |  | 
C[C@]12CCC(=O)C=C1CC[C@@H]1[C@@H]2[C@@H](O)C[C@@]2(C)[C@H]1CC[C@]2(O)C(=O)CO [Hydrocortisone base] |  | 0.004 | 557.864 | 
CC1=C(/C=C/C(C)=C/C=C/C(C)=C\C(=O)O)C(C)(C)CCC1 [Isotretinoin] | 204.751 | -0.503 |  | 
COc1ccc(C(=O)NCc2ccc(OCCN(C)C)cc2)cc1OC [Itopride] |  | -0.688 | 560.029 | 
CN1[C@@H]2CC(OC(=O)[C@H](CO)c3ccccc3)C[C@H]1[C@@H]1O[C@@H]12.Cl (stereo partly drawn) [Scopolamine hydrochloride] |  | 0.343 | 577.314 | 
CS(=O)(=O)c1ccc([C@@H](O)[C@@H](CO)NC(=O)C(Cl)Cl)cc1 [Thiamphenicol] |  | -0.089 | 545.996 | 
CC1(C)S[C@@H]2[C@H](NC(=O)[C@H](N)c3ccccc3)C(=O)N2[C@H]1C(=O)O [Ampicillin trihydrate] | 199.178 | -0.594 |  | 
C[C@H](CCC(=O)O)[C@H]1CC[C@H]2[C@@H]3[C@@H](O)C[C@@H]4C[C@H](O)CC[C@]4(C)[C@H]3CC[C@]12C [ursodeoxycholic acid, reference compound] |  |  |  | position among the hits of the screen (combined ranking of both screening assays): ≤ 150; position among the hits of the screen (combined ranking of both screening assays) (listed as Ursodeoxycholic acid): ≤ 100
CSc1nc2cc(Cl)c(Oc3cccc(Cl)c3Cl)cc2[nH]1 [Triclabendazole] |  | -0.202 | 541.575 | 
CC(=O)O[C@H]1C[C@@]2(C)[C@@H](C[C@@H](O)[C@H]3[C@@]4(C)CC[C@@H](O)[C@@H](C)[C@@H]4CC[C@@]32C)/C1=C(\CCC=C(C)C)C(=O)O [Fusidic acid sodium salt] |  | -0.548 | 523.068 | 
NS(=O)(=O)c1cc(C2(O)NC(=O)c3ccccc32)ccc1Cl (stereo not drawn) [Chlorthalidone] |  | -1.121 | 532.184 | 
CC(NC(C)(C)C)C(=O)c1cccc(Cl)c1 (stereo not drawn) [Bupropion hydrochloride] |  | 0.583 | 557.749 | 
CC(C)Oc1ccc2c(=O)c(-c3ccccc3)coc2c1 [Ipriflavone] |  | 2.878 | 535.848 | 
C[C@]12N[C@H](Cc3ccccc31)c1ccccc12 [Dizocilpine maleate] |  | -0.357 | 484.42 | 
C[C@H](N)[C@H](O)c1cccc(O)c1 [Metaraminol bitartrate] | 141.58 | 0.952 |  | 
CC(=O)Oc1ccccc1C(=O)Nc1ncc([N+](=O)[O-])s1 [Nitazoxanide] | 189.082 | -2.727 |  | 
CC#C[C@]1(O)CC[C@H]2[C@@H]3CCC4=CC(=O)CCC4=C3[C@@H](c3ccc(N(C)C)cc3)C[C@@]21C [Mifepristone] | 246.499 | -2.267 |  | 
CCCCCCC[N+](CC)(CC)CCCCc1ccc(Cl)cc1.Cc1ccc(S(=O)(=O)[O-])cc1 [Clofilium tosylate] | 143.363 | -2.506 |  | 
CC(C)N1CCN(c2ccc(OCC3COC(Cn4cncn4)(c4ccc(Cl)cc4Cl)O3)cc2)CC1 (stereo not drawn) [Terconazole] |  | -0.057 | 502.144 | 
C=C1c2c(Cl)ccc(O)c2C(=O)C2=C(O)[C@]3(O)C(=O)C(C(N)=O)=C(O)[C@@H](N(C)C)[C@@H]3[C@@H](O)[C@H]12.O=C(O)c1cc(S(=O)(=O)O)ccc1O [Meclocycline sulfosalicylate] |  | 0.486 | 647.296 | 
CCOC(=O)c1ccc(OC(=O)CCCCCN=C(N)N)cc1.CS(=O)(=O)O [Gabexate mesilate] | 203.005 | 0.072 |  | 
Oc1ccc(C2CNCCc3c2cc(O)c(O)c3Cl)cc1 (stereo not drawn) [Fenoldopam] | 222.621 | 0.056 |  | 
Cl.OC(CCN1CCCCC1)(c1ccccc1)C1CCCCC1 (stereo not drawn) [Trihexyphenidyl-D,L Hydrochloride] |  | 0.458 | 472.758 | 
CN1[C@@H]2CC[C@H]1C[C@@H](OC(=O)c1c[nH]c3ccccc13)C2 [Tropisetron HCl] |  | -1.094 | 543.985 | 
CC(=O)OCC(=O)[C@@]12OC(C)(C)O[C@@H]1C[C@H]1[C@@H]3C[C@H](F)C4=CC(=O)C=C[C@]4(C)[C@@]3(F)[C@@H](O)C[C@@]12C [Fluocinonide] |  | 0.319 | 619.745 | 
CC(=O)OCC(=O)[C@@]1(O)CC[C@H]2[C@@H]3CCC4=CC(=O)C=C[C@]4(C)[C@@]3(F)[C@@H](O)C[C@@]21C [Isoflupredone acetate] |  | 1.125 | 486.111 | 

Structure (SMILES) | Ranking score [1] | B-score functional assay | Ranking score [2] | also measured
C=CC1=C(C(=O)O)N2C(=O)[C@@H](NC(=O)/C(=N\OCC(=O)O)c3csc(N)n3)[C@H]2SC1 [Cefixime] | 185.952 | -2.268 |  | 
CC(C(=O)O)c1ccc(-c2ccccc2)c(F)c1 (stereo not drawn) [Flurbiprofen] |  | -0.613 | 612.059 | 
O=C([O-])c1ccccc1-c1c2cc(Br)c(=O)cc-2oc2[c]([Hg+])c([O-])c(Br)cc12.[Na+].[Na+].[OH-] [Merbromin] | 82.365 | -0.374 |  | 
Cc1cc(CC(=O)[O-])n(C)c1C(=O)c1ccc(Cl)cc1.[Na+] [Zomepirac sodium salt] |  | -0.802 | 527.712 | 
O=C1[C@H](CC[C@H](O)c2ccc(F)cc2)[C@@H](c2ccc(O)cc2)N1c1ccc(F)cc1 [ezetimibe, reference compound] | 30.4959 | -4.28 |  | NTCP inhibition in the screen (in words) (10 µM, both screening assays): confirmed NTCP inhibition; position among the hits of the screen (combined ranking of both screening assays): ≤ 150
CC/C(=C(/CC)c1ccc(O)cc1)c1ccc(O)cc1 [Diethylstilbestrol] | 262.907 | -0.349 |  | 
Cl.OC1CCCCC1N1CCC(c2ccccc2)CC1 (stereo not drawn) [L(-)-vesamicol hydrochloride] | 206.223 | -0.315 |  | 
Oc1cc(Cl)ccc1Oc1ccc(Cl)cc1Cl [Triclosan] | 149.432 | -1.77 |  | 
c1ccc2c(CC3=NCCN3)cccc2c1 [Naphazoline hydrochloride] | 143.903 | -2.093 |  | 
Cc1ncc([N+](=O)[O-])n1CC(C)O (stereo not drawn) [Secnidazole] |  | -0.391 | 548.521 | 
C[C@@H]1C[C@@H]([C@H](O)CC2CC(=O)NC(=O)C2)C(=O)[C@@H](C)C1 [Cycloheximide] |  | 0.172 | 464.697 | 
NS(=O)(=O)c1cc(C(=O)O)cc(N2CCCC2)c1Oc1ccccc1 [Piretanide] |  | -0.384 | 548.109 | 
Clc1ccc(COC(Cn2ccnc2)c2ccc(Cl)cc2Cl)cc1 (stereo not drawn) [Econazole nitrate] | 155.949 | -2.794 |  | 
CNCCC(Oc1ccc(C(F)(F)F)cc1)c1ccccc1 (stereo not drawn) [Fluoxetine hydrochloride] | 265.518 |  |  | 
CCS(=O)(=O)CCn1c([N+](=O)[O-])cnc1C [Tinidazole] |  | -0.469 | 478.029 | 
CC1(C)O[C@@H]2C[C@H]3[C@@H]4CCC5=CC(=O)CC[C@]5(C)[C@@]4(F)[C@@H](O)C[C@]3(C)[C@]2(C(=O)CCl)O1 [Halcinonide] |  | 0.608 | 634.219 | 
COc1ccccc1OCC(O)CN1CCN(CC(=O)Nc2c(C)cccc2C)CC1 (stereo not drawn) [Ranolazine] |  | 1.748 | 603.017 | 
CCCCC(CC)CN1CN(CC(CC)CCCC)CC(C)(N)C1 (stereo not drawn) [Hexetidine] |  | 3.961 | 491.543 | 
CN1CCN2c3ncccc3Cc3ccccc3C2C1 (stereo not drawn) [Mirtazapine] |  | 0.174 | 576.426 | 
CCCN(CCC)C(=O)C(CCC(=O)O)NC(=O)c1ccccc1 (stereo not drawn) [Proglumide] | 231.221 | 0.098 |  | 
NC(N)=NCc1cccc(I)c1.NC(N)=NCc1cccc(I)c1.O=S(=O)(O)O [Iobenguane sulfate] |  |  | 1171.02 | B-score functional assay (B-score): 1.016
COC(=O)C1=C(C)NC(C)=C(C(=O)OCC(C)C)C1c1ccccc1[N+](=O)[O-] (stereo not drawn) [Nisoldipine] | 25.6905 | -7.104 |  | 
CN(C)c1nc(N(C)C)nc(N(C)C)n1 [Altretamine] |  | -0.464 | 605.153 | 
CCNCC(O)c1cccc(O)c1 (stereo not drawn) [Etilefrine hydrochloride] |  | -0.021 | 503.552 | 
CC(=O)OCC(=O)[C@@]1(O)[C@H](C)C[C@H]2[C@@H]3CCC4=CC(=O)C=C[C@]4(C)[C@@]3(F)[C@@H](O)C[C@@]21C [Dexamethasone acetate] |  | 0.046 | 586.678 | 
COc1ccccc1OCC(O)CO (stereo not drawn) [Guaifenesin] |  | 0.275 | 466.326 | 
